In brackets after ≈: the same amount, converted by molar mass.
Conditions: not given

| SMILES | logP | solubility |
| --- | --- | --- |
| CCCCCCOC(=O)C1=C=CC(=O)NC(=O)N1 | 1.76 |  |
| CCCCCOC(=O)c1cccnc1 | 2.55 |  |
| CC(=O)Oc1ccc(N(C)C(=O)C(Cl)Cl)cc1 | 1.56 |  |
| COc1ncnc2c1ncn2C1OC(COC(=O)C(C)(C)C)C(O)C1OC(=O)C(C)(C)C (centres undefined) | 3.4 |  |
| CC(C)NC1=NC(=O)C(=Cc2ccc([N+](=O)[O-])o2)S1 | 1.29 |  |
| Nc1ccc([N+](=O)[O-])cc1Cl | 2.14 |  |
| CC(C)(C)C(=O)OCn1ncc2c(O)ncnc21 | 1.07 |  |
| CC(C)(C)C1CCCCC1 | 5.04 |  |
| COP(=S)(OC)Oc1c(Cl)cccc1C#N | 3.58 |  |
| COC1=C(OC)C(=O)C(C)=CC1=O | 0.8 |  |
| CCCCNC(=O)CCC(NS(=O)(=O)c1ccc(C)cc1)C(=O)O (centres undefined) | 0 |  |
| Brc1ccccc1-c1ccccc1 | 4.59 |  |
| Cl.Cl.O=C1c2c(O)ccc(O)c2C(=O)c2c(NCCNCCO)ccc(NCCNCCO)c21 |  | 14.5 mM |
| O=[N+]([O-])c1ccc2nc[nH]c2c1 | 1.5 |  |
| c1ccc2c(c1)ccc1[nH]c3ccc4ccccc4c3c12 |  | 0.000236 mM (≈ 0.063 µg/mL) |
| CC(N)CCc1ccccc1 (centres undefined) | 2.12 |  |
| COc1ccccc1C=O | 1.72 |  |
| Clc1ccc(Cl)c(-c2ccccc2Cl)c1 | 5.48 |  |
| c1ccc2c(c1)ccc1c3ccccc3ccc21 | 5.81 |  |
| C=CC(=O)NCCCN1CCSCC1 | 0.54 |  |
| CC(=O)Oc1ccc(CC(N)C(=O)O)cc1 (centres undefined) | -1.33 |  |
| O=C1CCC(=O)N1c1cc(Cl)cc(Cl)c1 | 1.4 |  |
| CCOC(=O)C(C)OC(=O)c1cc(Oc2ccc(C(F)(F)F)cc2Cl)ccc1[N+](=O)[O-] (centres undefined) |  | 0.000217 mM (≈ 0.1 µg/mL) |
| O=C1C2=C(CCCC2)C(=O)N1c1ccc(Cl)cc1 | 3.32 |  |

Same assay, conditions: 20 °C

| SMILES | solubility |
| --- | --- |
| COCCO[Si](CCCl)(OCCOC)OCCOC | 78.9 mM (≈ 25000 µg/mL) |
| ClC(Br)Br | 12.5 mM (≈ 2600 µg/mL) |
| Oc1cc(O)c2ccccc2c1 | 11.2 mM (≈ 1800 µg/mL) |
| C=COCC(C)C | 30 mM (≈ 3000 µg/mL) |
| CCC(=O)c1ccccc1 | 14.9 mM (≈ 2000 µg/mL) |
| N#Cc1ccncc1 | 384 mM (≈ 40000 µg/mL) |
| CC1=C(c2ccccc2)C(=O)N(C(C)(C)c2cc(Cl)cc(Cl)c2)CO1 | 0.000478 mM (≈ 0.18 µg/mL) |
| C=Cc1ccccn1 | 262 mM (≈ 27500 µg/mL) |

Same assay, conditions: 22 °C

| SMILES | solubility |
| --- | --- |
| CC(C)Nc1nc(Cl)nc(NC2CC2)n1 | 0.303 mM (≈ 69 µg/mL) |

Same assay, conditions: 22.0 °C

| SMILES | log10 OH rate constant (cm³/molecule/s) |
| --- | --- |
| CCCCCCl | -11.5 |

Same assay, conditions: 23.0 °C

| SMILES | log10 OH rate constant (cm³/molecule/s) |
| --- | --- |
| COC(OC)OC | -11.2 |
| CC1=CCC(=O)O1 | -10.2 |

Same assay, conditions: 24.0 °C

| SMILES | log10 OH rate constant (cm³/molecule/s) |
| --- | --- |
| C[Si](C)(C)O[Si](C)(C)C | -11.9 |

Same assay, conditions: 25 °C

| SMILES | solubility |
| --- | --- |
| CCCC(C)Cl (centres undefined) | 3.2 mM (≈ 341 µg/mL) |
| CC(C)CCCCCOC(=O)c1ccccc1C(=O)OCCCCCC(C)C | 0.00023 mM (≈ 0.09 µg/mL) |
| CCOC(C)=O | 908 mM (≈ 80000 µg/mL) |
| C[Si](C)(C)O[Si](C)(C)C | 0.00573 mM (≈ 0.93 µg/mL) |
| CCCCC(C=O)CC (centres undefined) | 3.12 mM (≈ 400 µg/mL) |
| O=NN(c1ccccc1)c1ccccc1 | 0.177 mM (≈ 35 µg/mL) |
| CCCCCCO[N+](=O)[O-] | 0.747 mM (≈ 110 µg/mL) |
| OCC#CCO | 4340 mM (≈ 374000 µg/mL) |
| CCCCCCCCCCCCCCCC | 3.97e-06 mM (≈ 0.0009 µg/mL) |
| Cc1cccc(C)c1N | 68 mM (≈ 8240 µg/mL) |
| CC(O)c1ccccc1 (centres undefined) | 43.8 mM (≈ 5350 µg/mL) |
| COc1cc(Cl)ccc1O | 31.5 mM (≈ 5000 µg/mL) |
| CC(C)CCO[N+](=O)[O-] | 3.3 mM (≈ 440 µg/mL) |
| CC(=O)C=CC1=C(C)CCCC1(C)C | 0.879 mM (≈ 169 µg/mL) |
| CCN(N=O)C(N)=O | 111 mM (≈ 13000 µg/mL) |
| CSc1ccccc1 | 4.07 mM (≈ 506 µg/mL) |
| Cc1ccccc1N | 155 mM (≈ 16600 µg/mL) |
| Cc1cc(C)c(C)c(O)c1 | 5.59 mM (≈ 762 µg/mL) |
| Clc1ccc(Cl)c(-c2ccccc2Cl)c1 | 0.00155 mM (≈ 0.4 µg/mL) |
| c1ccc2c(c1)ccc1c3ccccc3ccc21 | 8.76e-06 mM (≈ 0.002 µg/mL) |
| FC(F)(F)C(F)(Cl)Cl | 0.801 mM (≈ 137 µg/mL) |

Same assay, conditions: 25.0 °C

| SMILES | log10 OH rate constant (cm³/molecule/s) |
| --- | --- |
| Cc1cc2ccccc2cc1C | -10.2 |
| CCCCOCC=O | -10.7 |
| NCC(F)(F)F | -12 |
| FC(F)(Cl)C(Cl)Cl | -13.3 |
| c1cc2ccc3cccc4ccc(c1)c2c34 | -10.3 |
| CCCC(C)=O | -11.3 |
| CC(C)OCCO | -10.7 |
| O=CC(Cl)(Cl)Cl | -11.8 |
| FC(F)(F)C(F)(F)N(C(F)(F)C(F)(F)F)C(F)(F)C(F)(F)F | < -15.2 |
| O=CC(F)(F)Cl | -12.1 |
| CC(F)(Cl)Cl | -14.2 |
| CC(C)CC(=O)CC(C)C | -10.6 |
| CCOCCOCC | -10.2 |
| C/C(C=O)=C\C=C\C=O | -9.93 |
| Oc1cccc2ccccc12 | -9.26 |
| FC1(F)OC(F)(F)C1(F)F | < -15.7 |
| C=Cc1ccccn1 | -10.2 |

Same assay, conditions: 27 °C

| SMILES | solubility |
| --- | --- |
| Cc1c2ccccc2cc2ccc3ccccc3c12 | 0.000272 mM (≈ 0.066 µg/mL) |

Same assay, conditions: 27.0 °C

| SMILES | log10 OH rate constant (cm³/molecule/s) |
| --- | --- |
| O=C1C=CC(=O)C=C1 | -11.3 |

Same assay, conditions: 30 °C

| SMILES | solubility |
| --- | --- |
| Nc1ccc([N+](=O)[O-])cc1 | 5.27 mM (≈ 728 µg/mL) |

Same assay, conditions: pH 7.0

| SMILES | logD |
| --- | --- |
| Cc1nn(-c2cc(NS(C)(=O)=O)c(Cl)cc2Cl)c(=O)n1C(F)F | 0.99 |
